Assay results reported in patent US7932228B2, “Method of treating bone or prostate cancer with selective bradykinin B1 receptor antagonists” (Societe de Commercialisation des Produits de la Recherche …, priority 2004, dated 2011).

Legend:
[1] = tested on: MAT-LyLu-B2 prostate cancer cells; assay: orthoptic prostate cancer rat model (tumor progression); format: in vivo; details: male Copenhagen rats, 3 mg/kg s.c. daily from day 1, 21 days after surgery, n=5-6, p<0.05; saline 1856±443 mg
Experimental: The potential of a BKB1-R antagonist to inhibit tumor progression in an orthoptic prostate cancer rat model was evaluated. Under anesthesia, male Copenhagen rats were injected in the anterior prostatic lobe with 100 000 MAT-LyLu-B2 prostate cancer cells. One day after the surgery, the animals received a daily injection of either saline or Compound A (3 mg/kg s.c.). At 21 days after the surgery, the animals were sacrificed and the prostate tumor was excised and weighted. Average weight of the prostate and tumor was 1856±443 mg for saline-treated rats and 504±135 mg with Compound A-treated animals (n=5-6 p<0.05). Two other cancerous cell-types (R 3327-G, MAT-Lu) were implanted in rats and similar results were obtained at inhibiting tumor progression dose-dependently over periods of time. A BKB1-Ra was also reported effective at stopping and reversing the progression of established tumor, considering efficacy, reversibility and relapse of treatment. These elements were maintained upon dual and triple combinations with other anti-cancer, anti-angiogenic, anti-proliferative agents such as taxane and platinum related compounds.

PC-3 cells = details: in vitro, cited from earlier work

## Ac-Orn[Oic^2,(α-Me)Phe^5,D-βNal^7,Ile^8]desArg^9BK [Compound A]
[1]
  Average weight of the prostate and tumor: 504 ± 135 mg

## Arg Pro Pro Gly Phe Ser Pro Phe (RPPGFSPF; desArg9 BK) [desArg^9-BK]
PC-3 cells; BKB1-R agonist alone
  cell growth and proliferation of PC-3 cells: stimulated

## [Leu^8]desArg^9-BK
PC-3 cells; growth stimulated by desArg^9-BK
  effect on desArg^9-BK-stimulated growth of PC-3 cells: blocked
